According to patent US20250179103A1, “6-OXODECAHYDROPYRROLO[1,2-A][1,5]DIAZOCINE AND 6-OXODECAHYDRO-4H-PYRROLO[2,1-D][1,5]THIAZOCINE DERIVATIVES AS STAT3 AND STAT6 MODULATORS FOR THE TREATMENT OF CANCER AND INFLAMMATORY CONDITIONS” (Recludix Pharma, Inc., priority 2022, published 2025):

Experiments:
[1] = system: pY641-STAT6 in Peripheral Blood Mononuclear Cells (PBMC); assay: MSD-pSTAT-PBMC Assay (pSTAT6, IL-4 stimulated); assay type: cell-based, Human; conditions: compound 3 hrs, then 1 ng/mL IL-4 for 10 min
How it was run: (§1)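 Phospho-STAT readout used MSD electrochemiluminescence with total STAT3 or STAT6 capture in lysates of cryopreserved human PBMCs. Cells had 3 h compound exposure before a 10 min cytokine pulse: IL-6 10 ng/mL for pSTAT3, IL-4 1 ng/mL for pSTAT6. IC50 came from background-subtracted, DMSO-normalised signal, with categories A≤100 nM up to D>3 μM.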

[2] = system: pY705-STAT3 in Peripheral Blood Mononuclear Cells (PBMC); assay: MSD-pSTAT-PBMC Assay (pSTAT3, IL-6 stimulated); assay type: cell-based, Human; conditions: compound 3 hrs, then 10 ng/mL IL-6 for 10 min
How it was run: as §1

CC(C)(C)C(=O)OCOP(=O)(OCOC(=O)C(C)(C)C)C(F)(F)c1ccc2ccc(C(=O)NC3CN(CC(F)F)CCC4CCC(C(=O)N5CC(C#N)C(c6cc(F)cc(F)c6)C5)N4C3=O)cc2c1 [Compound 344, ((((7-(((5S,8S,10aR)-8-((rel-trans)-3-cyano-4-(3,5-difluorophenyl)pyrrolidine-1-carbonyl)-3-(2,2-difluoroethyl)-6-oxodecahydropyrrolo[1,2-a][1,5]diazocin-5-yl)carbamoyl)naphthalen-2-yl)difluoromethyl)phosphoryl)bis(oxy)) bis(methylene) bis(2,2-dimethylpropanoate)]
IC50 [1]: 100 to 1000 nM
IC50 [2]: 1000 to 3000 nM

Cc1ccc2[nH]nc(C(=O)N3CC[C@H]4CC[C@@H](C(=O)N(C)C)N4C(=O)[C@@H](NC(=O)c4ccc5ccc(C(F)(F)P(=O)(OCCSC(=O)CC(C)C)OCCSC(=O)CC(C)C)cc5c4)C3)c2c1 [Compound 331, S,S′-(((((7-(((5S,8S,10aR)-8-(dimethylcarbamoyl)-3-(5-methyl-1H-indazole-3-carbonyl)-6-oxodecahydropyrrolo[1,2-a][1,5]diazocin-5-yl)carbamoyl)naphthalen-2-yl)difluoromethyl)phosphoryl)bis(oxy))bis(ethane-2,1-diyl))bis(3-methylbutanethioate)]
IC50 ([1]; Homo sapiens): ≤ 100 nM
IC50 ([2]; Homo sapiens): > 3000 nM

CC(=O)N1CCC2CCC(C(=O)N3CC(c4ccccc4)CC34CC4)N2C(=O)C(NC(=O)c2ccc3ccc(C(F)(F)P(=O)(OCCSC(=O)CC(C)C)OCCSC(=O)CC(C)C)cc3c2)C1 [Compound 1, S,S′-(((((7-(((5S,8S,10aR)-3-acetyl-6-oxo-8-(6-phenyl-4-azaspiro[2.4]heptane-4-carbonyl)decahydropyrrolo[1,2-a][1,5]diazocin-5-yl)carbamoyl)naphthalen-2-yl)difluoromethyl)phosphoryl)bis(oxy))bis(ethane-2,1-diyl)) bis(3-methylbutanethioate)]
IC50 [1]: 100 to 1000 nM
IC50 [2]: > 3000 nM

CC(=O)N1CC[C@H]2CC[C@@H](C(=O)N3C[C@H](c4ccccc4)[C@@H](C#N)C3)N2C(=O)[C@@H](NC(=O)c2ccc3ccc(C(F)(F)P(=O)(OCOC(=O)C(C)(C)C)OCOC(=O)C(C)(C)C)cc3c2)C1 (mixture of isomers) [Compound 323, ((((7-(((5S,8S, 10aR)-3-acetyl-8-((rel- trans)-3-cyano-4-phenyl-pyrrolidine-1-carbonyl)-6-oxodecahydro-pyrrolo[1,2-a][1,5]diazocin-5-yl)carbamoyl)naphthalen-2-yl)difluoro-methyl)phos-phoryl)bis(oxy)) bis(methylene) bis(2,2-dimethylpro-panoate)]
IC50 ([1]; Homo sapiens): ≤ 100 nM
IC50 ([2]; Homo sapiens): 1000 to 3000 nM

CCCOC(=O)OC(C)OP(=O)(OC(C)OC(=O)OCCC)C(F)(F)c1ccc2sc(C(=O)N[C@H]3CN(C(C)=O)CC[C@H]4CC[C@@H](C(=O)N(C)c5ccccc5)N4C3=O)cc2c1 (stereo partly drawn) [Compound 293, ((((2-(((5S,8S, 10aR)-3-acetyl-8-(methyl (phenyl)carbamoyl)-6-oxodecahydro-pyrrolo[1,2-a][1,5]diazocin-5-yl)carbamoyl)benzo[b]thiophen-5-yl)difluoro-methyl)phos-phoryl)bis(oxy)) bis(ethane-1,1-diyl) dipropyl bis(carbonate)]
IC50 ([1]; Homo sapiens): > 3000 nM
IC50 ([2]; Homo sapiens): > 3000 nM

CC(=O)N1CC[C@H]2CC[C@@H](C(=O)N(C)c3ccccc3)N2C(=O)[C@@H](NC(=O)c2ccc3ccc(C(F)(F)P(=O)(OCOC(=O)C(C)(C)C)OCOC(=O)C(C)(C)C)cc3c2)C1 [Compound 321, ((((7-(((5S,8S, 10aR)-3-acetyl-8-(methyl (phenyl)carbamoyl)-6-oxodecahydro-pyrrolo[1,2-a][1,5]diazocin-5-yl)carbamoyl)naphthalen-2-yl)difluoro-methyl)phos-phoryl)bis(oxy)) bis(methylene) bis(2,2-dimethylpro-panoate)]
IC50 ([1]; Homo sapiens): ≤ 100 nM
IC50 ([2]; Homo sapiens): 100 to 1000 nM

CC(=O)N1CC[C@H]2CC[C@@H](C(=O)N(C)c3ccccc3)N2C(=O)[C@@H](NC(=O)c2cc3cc(C(F)(F)P(=O)(OCCSC(=O)C(C)(C)C)Oc4ccccc4)ccc3s2)C1 (stereo partly drawn) [Compound 289, S-(2-((((2-(((5S,8S, 10aR)-3-acetyl-8-(methyl (phenyl)carbamoyl)-6-oxodecahydro-pyrrolo[1,2-a][1,5]diazocin-5-yl)carbamoyl)benzo[b]thiophen-5-yl)difluoro-methyl) (phenoxy)phosphoryl)oxy)ethyl)2,2-dimethylpro-panethioate]
IC50 ([1]; Homo sapiens): > 3000 nM
IC50 ([2]; Homo sapiens): > 3000 nM

CCCC(=O)SCCOP(=O)(OCCSC(=O)CCC)C(F)(F)c1ccc2ccc(C(=O)N[C@H]3CN(C(C)=O)CC[C@H]4CC[C@@H](C(=O)N5CC(c6cc[nH]c(=O)c6)CC56CC6)N4C3=O)cc2c1 (stereo partly drawn) [Compound 332, S,S′-(((((7-(((5S,8S,10aR)-3-acetyl-6-oxo-8-(6-(2-oxo-1,2-dihydropyridin-4-yl)-4-azaspiro[2.4]heptane-4-carbonyl)decahydropyrrolo[1,2-a][1,5]diazocin-5-yl)carbamoyl)naphthalen-2-yl)difluoromethyl)phosphoryl)bis(oxy))bis(ethane-2,1-diyl))dibutanethioate]
IC50 ([1]; Homo sapiens): ≤ 100 nM
IC50 ([2]; Homo sapiens): > 3000 nM

COCCOC(=O)OCOP(=O)(OCOC(=O)OCCOC)C(F)(F)c1ccc2sc(C(=O)N[C@H]3CN(C(C)=O)CC[C@H]4CC[C@@H](C(=O)N(C)c5ccccc5)N4C3=O)cc2c1 [Compound 283, ((((2-(((5S,8S, 10aR)-3-acetyl-8-(methyl (phenyl)carbamoyl)-6-oxodecahydro-pyrrolo[1,2-a][1,5]diazocin-5-yl)carbamoyl)benzo[b]thiophen-5-yl)difluoro-methyl)phos-phoryl)bis(oxy)) bis(methylene) bis(2-methoxyethyl) bis(carbonate)]
IC50 ([1]; Homo sapiens): 1000 to 3000 nM
IC50 ([2]; Homo sapiens): > 3000 nM

CC(=O)N1CC[C@H]2CC[C@@H](C(=O)N(C)c3ccc(C#N)cc3)N2C(=O)[C@@H](NC(=O)c2cc3cc(C(F)(F)P(=O)(OCOC(=O)C(C)(C)C)OCOC(=O)C(C)(C)C)ccc3s2)C1 [Compound 316, ((((2-(((5S,8S, 10aR)-3-acetyl-8-((4-cyanophenyl) (methyl)carbamoyl)-6-oxodecahydro-pyrrolo[1,2-a][1,5]diazocin-5-yl)carbamoyl)benzo[b]thiophen-5-yl)difluoro-methyl)phos-phoryl)bis(oxy)) bis(methylene) bis(2,2-dimethylpro-panoate)]
IC50 ([1]; Homo sapiens): 1000 to 3000 nM
IC50 ([2]; Homo sapiens): > 3000 nM

CC(=O)N1CC[C@H]2CC[C@@H](C(=O)N(C)c3ccc(-c4ccccc4)cc3)N2C(=O)[C@@H](NC(=O)c2cc3cc(C(F)(F)P(=O)(OCOC(=O)C(C)(C)C)OCOC(=O)C(C)(C)C)ccc3s2)C1 [Compound 310, ((((2-(((5S, 8S,10aR)-8-([1,1′-biphenyl]-4-yl(methyl)carbamoyl)-3-acetyl-6-oxodecahydro-pyrrolo[1,2-a][1,5]diazocin-5-yl)carbamoyl)benzo[b]thiophen-5-yl)difluoro-methyl)phos-phoryl)bis(oxy)) bis(methylene) bis(2,2-dimethylpro-panoate)]
IC50 ([1]; Homo sapiens): 100 to 1000 nM
IC50 ([2]; Homo sapiens): 100 to 1000 nM

CN(CC(C)(C)C#N)C(=O)[C@@H]1CC[C@@H]2CCN(CC(F)F)C[C@H](NC(=O)c3cc4cc(C(F)(F)P(=O)(OCOC(=O)C(C)(C)C)OCOC(=O)C(C)(C)C)ccc4s3)C(=O)N21 [Compound 352, ((((2-(((5S,8S,10aR)-8-((2-cyano-2-methylpropyl)(methyl)carbamoyl)-3-(2,2-difluoroethyl)-6-oxodecahydropyrrolo[1,2-a][1,5]diazocin-5-yl)carbamoyl)benzo[b]thiophen-5-yl)difluoromethyl)phosphoryl)bis (oxy))bis(methylene) bis(2,2-dimethylpropanoate)]
IC50 ([1]; Homo sapiens): ≤ 100 nM
IC50 ([2]; Homo sapiens): ≤ 100 nM

CC(=O)N1CC[C@H]2CC[C@@H](C(=O)N(C)c3ccccc3)N2C(=O)[C@@H](NC(=O)c2ccc3cc(C(F)(F)P(=O)(OCOC(=O)C(C)(C)C)OCOC(=O)C(C)(C)C)ccc3c2)C1 [Compound 322, ((((6-(((5S,8S, 10aR)-3-acetyl-8-(methyl (phenyl)carbamoyl)-6-oxodecahydro-pyrrolo[1,2-a][1,5]diazocin-5-yl)carbamoyl)naphthalen-2-yl)difluoro-methyl)phos-phoryl)bis(oxy)) bis(methylene) bis(2,2-dimethylpro-panoate)]
IC50 ([1]; Homo sapiens): > 3000 nM
IC50 ([2]; Homo sapiens): > 3000 nM

CC(=O)N1CC[C@H]2CC[C@@H](C(=O)N3C[C@H](c4ccccc4)[C@@H](C#N)C3)N2C(=O)[C@@H](NC(=O)c2cc3cc(C(F)(F)P(=O)(OCOC(=O)OC(C)C)OCOC(=O)OC(C)C)ccc3s2)C1 (single isomer, unassigned) [Compound 285, ((((2-(((5S,8S, 10aR)-3-acetyl-8-((3R,4S or 3S,4R)-3-cyano-4-phenyl-pyrrolidine-1-carbonyl)-6-oxodecahydro-pyrrolo[1,2-a][1,5]diazocin-5-yl)carbamoyl)benzo[b]thiophen-5-yl)difluoro-methyl)phos-phoryl)bis(oxy)) bis(methylene) diisopropyl bis(carbonate)]
IC50 ([1]; Homo sapiens): ≤ 100 nM
IC50 ([2]; Homo sapiens): 100 to 1000 nM

CCN1CC[C@H]2CC[C@@H](C(=O)N3C[C@@H](C#N)[C@H](c4ccccc4)C3)N2C(=O)[C@@H](NC(=O)c2cc3cc([C@H](F)P(=O)(OCCSC(=O)CC(C)C)OCCSC(=O)CC(C)C)ccc3s2)C1 (single isomer, unassigned) [Compound 339, S,S′-(((((R or S)-(2-(((5S,8S,10aR)-8-((3S,4R or 3R,4S)-3-cyano-4-phenylpyrrolidine-1-carbonyl)-3-ethyl-6-oxodecahydropyrrolo[1,2-a][1,5]diazocin-5-yl)carbamoyl)benzo[b]thiophen-5-yl)fluoromethyl)phosphoryl)bis(oxy))bis(ethane-2,1-diyl))bis(3-methylbutane thioate)]
IC50 ([1]; Homo sapiens): 100 to 1000 nM
IC50 ([2]; Homo sapiens): 1000 to 3000 nM
